Assay results published in PubChem BioAssay AID1963851 (Molecular Pharmacology Branch, DTP, NCI, 2024).

Test system: 188146-221-R-J1-PDC complex spheroid viability
Assay: Anticancer human tumor 188146-221-R-J1-PDC patient-derived colon adenocarcinoma cell line growth inhibition [POLQ]
Details: for IC50: curve of first compound; for viability, T/C: stronger effect = lower value; active = viability on the fitted dose curve at most 10% of control; inactive = the rest
Experimental: Multicellular complex tumor spheroid response to Polymerase (POL) inhibitors (novobiocin, ART-558, RP6685) in combination with a variety of drugs and investigational agents in selected tumor cell lines
The POL inhibitors (novobiocin, ART-558, and RP6685) were evaluated both individually and in combination with standard of care and investigational anticancer small molecules within a complex spheroid model of solid tumors. . Complex spheroids include a stromal component modeled by human endothelial cells (HUVEC) and fibroblasts modeled by human mesenchymal stem cells (MSCs). The concentration ranges selected for each drug and investigational agent were based upon clinically achievable concentrations if the clinical Cmax of the agent was known.
Compounds. The drugs and investigational agents: novobiocin (NSC847541), ART-558 (NSC835418), RP-6685 (NSC848927), peposertib (NSC802822), ceralasertib (NSC780249), elimusertib (NSC800525), camonsertib (NSC841442), AZD-1390 (NSC803789), olaparib (NSC753686), talazoparib (NSC767125), rucaparib (NSC756644), sotorasib (NSC818433), MRTX-1133 (NSC836407), SN-38 (NSC673596), topotecan (NSC609699), epotoside (NSC141540), doxorubicin (NSC123127), gemcitabine (NSC613327), 5-fluorouracil (NSC19893), paclitaxel (NSC125973), vemurafenib (NSC761431), MSA-2 (NSC828583), SN-011 (NSC837082), adavosertib (NSC754352), prexasertib (NSC758257), carboplatin (NSC241240) and oxaliplatin (NSC266046), were obtained from the National Cancer Institute (NCI) Developmental Therapeutics Program Chemical Repository (21). The FDA-approved anticancer drug set is available from the Developmental Therapeutics Program at https://dtp.cancer.gov/organization/dscb/obtaining/. […] The stock solutions were prepared in dimethyl sulfoxide (DMSO, Sigma-Aldrich, St. Louis, MO, cat. D2650), except for the platinum compounds which were prepared in saline (Quality Biological, Gaithersburg, MD, cat. 114-055-101), at 800-fold the tested concentration and stored at -70 degrees C prior to their use. All drugs and investigational agents were tested over a range starting from a high concentration at or near the clinical Cmax and decreasing in half-log increments. If the clinical Cmax for an agent had not been determined, the highest concentration tested was 10 microM, except for SN-38, which was tested at a high concentration of 1 microM.
Cell Culture. All cells were maintained in an incubator at 37 degrees C and 5% CO2 with 95% humidity. The PDC lines were cultured according to standard operating procedures established by the NCI PDMR (https://pdmr.cancer.gov). Table 3 of the manuscript, lists the cell lines along with the number of the three cell types plated to form the mct-spheroids and media for tumor cell growth. After thawing, all PDC lines, except 997537-175-T-J1-PDC and 415267-285-R-J2-PDC, were cultured in Matrigel-coated flasks prepared with a working solution of 1X Ham's F-12 nutrient mix, without supplementation (Thermo Fisher Scientific, cat. 11765054), 100 U/mL penicillin-streptomycin (Thermo Fisher Scientific, cat. 15140122), and 2.5% Matrigel (Corning Inc., Corning, NY, cat. 354248) for the first three passages. The two PDC lines 997537-175-T-J1-PDC and 415267-285-R-J2-PDC were cultured on uncoated flasks. The 857933-349-R-J2-PDC line was cultured in 6C/Colon 1B media containing advanced DMEM/F-12 (Thermo Fisher Scientific, cat. 12634028), 10 mM HEPES (Thermo Fisher Scientific, cat. 15630080), 1X GlutaMAX supplement (Thermo Fisher Scientific, cat. 35050061), 0.1 mg/mL primocin (InvivoGen, San Diego, CA, cat. ant-pm-2), 10% defined fetal bovine serum, heat inactivated (HyClone Laboratories Inc., Logan, UT, cat. SH30070.03HI), 50% L-WRN conditioned media (ATCC, cat. CRL-3276), 1.25 mM N-Acetyl-L-cysteine (Sigma-Aldrich, cat. A9165), 10 mM nicotinamide (Sigma-Aldrich, cat. N0636), 1X B-27 supplement (Thermo Fisher Scientific, cat. 17504044), 1X N-2 supplement (Thermo Fisher Scientific, cat. […]

[1] = second compound 0.0316 µM, first compound 0.0316 µM
[2] = second compound 0.0316 µM, first compound 0.1 µM
[3] = second compound 0.0316 µM, first compound 0.316 µM
[4] = second compound 0.0316 µM, first compound 1 µM
[5] = second compound 0.0316 µM, first compound 3.16 µM
[6] = second compound 0.0316 µM, first compound 10 µM
[7] = second compound 0.1 µM, first compound 0.0316 µM
[8] = second compound 0.1 µM, first compound 0.1 µM
[9] = second compound 0.1 µM, first compound 0.316 µM
[10] = second compound 0.1 µM, first compound 1 µM
[11] = second compound 0.1 µM, first compound 3.16 µM
[12] = second compound 0.1 µM, first compound 10 µM
[13] = second compound 0.316 µM, first compound 0.0316 µM
[14] = second compound 0.316 µM, first compound 0.1 µM
[15] = second compound 0.316 µM, first compound 0.316 µM
[16] = second compound 0.316 µM, first compound 1 µM
[17] = second compound 0.316 µM, first compound 3.16 µM
[18] = second compound 0.316 µM, first compound 10 µM
[19] = second compound 1 µM, first compound 0.0316 µM
[20] = second compound 1 µM, first compound 0.1 µM
[21] = second compound 1 µM, first compound 0.316 µM
[22] = second compound 1 µM, first compound 1 µM
[23] = second compound 1 µM, first compound 3.16 µM
[24] = second compound 1 µM, first compound 10 µM
[25] = second compound 3.16 µM, first compound 0.0316 µM
[26] = second compound 3.16 µM, first compound 0.1 µM
[27] = second compound 3.16 µM, first compound 0.316 µM
[28] = second compound 3.16 µM, first compound 1 µM
[29] = second compound 3.16 µM, first compound 3.16 µM
[30] = second compound 3.16 µM, first compound 10 µM
[31] = second compound 10 µM, first compound 0.0316 µM
[32] = second compound 10 µM, first compound 0.1 µM
[33] = second compound 10 µM, first compound 0.316 µM
[34] = second compound 10 µM, first compound 1 µM
[35] = second compound 10 µM, first compound 3.16 µM
[36] = second compound 10 µM, first compound 10 µM
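Also: spheroids exposed to compounds for seven days.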

CC1COCCN1c1cc(-c2ccnn2C)c2ccnc(-c3ccn[nH]3)c2n1 (centres undefined) + COC1C(OC(N)=O)C(O)C(Oc2ccc3c(O)c(NC(=O)c4ccc(O)c(CC=C(C)C)c4)c(=O)oc3c2C)OC1(C)C
inactive: viability, T/C [1] 81.5% | viability, T/C [2] 67.3% | viability, T/C [3] 39.3% | viability, T/C [4] 23.3% | viability, T/C [5] 16.3% | viability, T/C [6] 14% | viability, T/C [7] 94.2% | viability, T/C [8] 57.8% | viability, T/C [9] 44.5% | viability, T/C [10] 21.3% | viability, T/C [11] 18.1% | viability, T/C [12] 14.1% | viability, T/C [13] 78.2% | viability, T/C [14] 66.3% | viability, T/C [15] 37.2% | viability, T/C [16] 22.4% | viability, T/C [17] 17.2% | viability, T/C [18] 13.3% | viability, T/C [19] 83.3% | viability, T/C [20] 74.2% | viability, T/C [21] 43.3% | viability, T/C [22] 22.9% | viability, T/C [23] 16.9% | viability, T/C [24] 13.2% | viability, T/C [25] 85.5% | viability, T/C [26] 61.6% | viability, T/C [27] 46.2% | viability, T/C [28] 19.4% | viability, T/C [29] 18.3% | viability, T/C [30] 14.1% | viability, T/C [31] 79.9% | viability, T/C [32] 54.5% | viability, T/C [33] 44.6% | viability, T/C [34] 19.9% | viability, T/C [35] 16.7% | viability, T/C [36] 17%
193 nM: IC50 (second compound 0.316 µM)
252 nM: IC50 (second compound 1 µM)
159 nM: IC50 (second compound 10 µM)
207 nM: IC50 (second compound 0.0316 µM)
204 nM: IC50 (second compound 3.16 µM)
175 nM: IC50 (second compound 0.1 µM)

O=C(Nc1ccc(O)c(NS(=O)(=O)c2ccc(F)cc2)c1)c1ccc(-c2ccccc2)cc1 + COC1C(OC(N)=O)C(O)C(Oc2ccc3c(O)c(NC(=O)c4ccc(O)c(CC=C(C)C)c4)c(=O)oc3c2C)OC1(C)C
> 10000 nM: IC50 (second compound 0.0316 µM) | IC50 (second compound 0.1 µM) | IC50 (second compound 0.316 µM) | IC50 (second compound 1 µM) | IC50 (second compound 3.16 µM) | IC50 (second compound 10 µM)
inactive: viability, T/C [1] 104% | viability, T/C [2] 95% | viability, T/C [3] 99.7% | viability, T/C [4] 97.6% | viability, T/C [5] 86.5% | viability, T/C [6] 89% | viability, T/C [7] 106% | viability, T/C [8] 104% | viability, T/C [9] 96.5% | viability, T/C [10] 99.4% | viability, T/C [11] 98.8% | viability, T/C [12] 75.2% | viability, T/C [13] 95% | viability, T/C [14] 108% | viability, T/C [15] 101% | viability, T/C [16] 100% | viability, T/C [17] 88.2% | viability, T/C [18] 69.4% | viability, T/C [19] 102% | viability, T/C [20] 96.2% | viability, T/C [21] 105% | viability, T/C [22] 101% | viability, T/C [23] 94.4% | viability, T/C [24] 79.5% | viability, T/C [25] 105% | viability, T/C [26] 106% | viability, T/C [27] 108% | viability, T/C [28] 88.7% | viability, T/C [29] 97.4% | viability, T/C [30] 73.1% | viability, T/C [31] 96.9% | viability, T/C [32] 95.8% | viability, T/C [33] 113% | viability, T/C [34] 102% | viability, T/C [35] 103% | viability, T/C [36] 83.3%
